From BindingDB's records for doi:10.1016/j.bmc.2023.117383 (Fuzhou University, 2023)

Legend:
[1] = molecular target: T1, Crossover junction endonuclease MUS81 (Homo sapiens, UniProt Q96NY9); assay: Binding affinity to human GST-tagged MUS81-ECE2 expressed in Escherichia coli BL21(DE3)Rosetta2 cells assessed as dissociation constant by Surface plasmon resonance analysis
T1 sequence (Q96NY9 whole entry): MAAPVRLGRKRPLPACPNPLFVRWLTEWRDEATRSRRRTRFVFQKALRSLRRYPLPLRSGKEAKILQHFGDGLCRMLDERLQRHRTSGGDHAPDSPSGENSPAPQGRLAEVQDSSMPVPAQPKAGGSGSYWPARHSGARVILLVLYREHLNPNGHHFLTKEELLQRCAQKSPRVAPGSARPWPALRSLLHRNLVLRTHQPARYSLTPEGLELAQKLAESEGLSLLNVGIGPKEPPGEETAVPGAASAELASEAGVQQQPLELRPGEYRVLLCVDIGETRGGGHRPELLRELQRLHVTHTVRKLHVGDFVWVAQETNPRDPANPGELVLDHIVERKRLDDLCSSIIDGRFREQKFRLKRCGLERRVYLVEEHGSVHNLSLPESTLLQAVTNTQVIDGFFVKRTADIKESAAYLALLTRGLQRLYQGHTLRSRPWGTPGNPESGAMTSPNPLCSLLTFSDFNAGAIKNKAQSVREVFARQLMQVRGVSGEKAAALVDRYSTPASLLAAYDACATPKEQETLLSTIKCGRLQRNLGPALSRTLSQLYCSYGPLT

[2] = molecular target: T1, Crossover junction endonuclease MUS81; assay: Binding affinity to human GST-tagged MUS81-ECE1 expressed in Escherichia coli BL21(DE3)Rosetta2 cells assessed as dissociation constant by Surface plasmon resonance analysis

Structure (SMILES): O=C(N/N=C/c1cc(O)c(O)cc1O)c1cc2ccccc2cc1O
- Kd [1]: 6.1 nM
- Kd [2]: 6.1 nM
